Source: US20010003744A1, “Therapeutic compounds” (priority 1994, published 2001)

Tests used:
HCMV strain AD169 = experiment: Human Cytomegalovirus (HCMV) assay, HCMV DNA hybridization; format: cell-based; conditions: HCMV strain AD169 on MRC5 cells, 5 days, HCMV DNA by blotting and hybridization
Procedure: (§1) HCMV strain AD169 was grown on monolayers of human embryonic lung cells (MRC5 cells) in 96 well plates. After infection of the cells at a ratio of approximately 0.01 infectious virus particles per cell, the compounds to be tested were added to selected wells at six different concentrations, each in triplicate. The same concentrations of compound were also applied to wells containing monolayers of uninfected cells in order to assess compound cytotoxicity. The plates were incubated for 5 days, and the minimum cytotoxic dose was estimated from microscopic examination. The IC50 for antiviral effect was estimated from measurements of HCMV DNA in each well by blotting and quantitive specific DNA hybridization, similar to the method of Gadler. (Antimicrob. Agents Chemother. 1983, 24, 370-374).

[1] = Compound cytotoxicity on uninfected MRC5 monolayers, microscopic examination; format: cell-based, human; conditions: human, uninfected MRC5 cell monolayers (human embryonic lung cells); uninfected MRC5 cells, 5 days, estimated from microscopic examination; read-out: MRC5 tox CC50
Procedure: as §1

MRC5 cells = experiment: as above; format: cell-based, human
Procedure: as §1

melting point	Structure (SMILES)	other results
231 to 233 °C	CCCNc1nc2cc(Cl)c(Cl)cc2n1[C@H]1O[C@@H](CO)[C@H](O)[C@@H]1O [Example 10, 5,6-Dichloro-2-(n-propylamino)-1-(beta-L-ribofuranosyl)-1H-benzimidazole]	IC50 (HCMV strain AD169; Human betaherpesvirus 5, 120 h): 1.1 to 1.3 µM; CC50 at 5 days [1]: 100 µM
136 °C	CC(C)CNc1nc2cc(Cl)c(Cl)cc2n1[C@H]1O[C@@H](CO)[C@H](O)[C@@H]1O [Example 11, 5,6-Dichloro-2-(isobutylamino)-1-(beta-L-ribofuranosyl)-1H-benzimidazole]	
220 to 222 °C	CCCCNc1nc2cc(Cl)c(Cl)cc2n1[C@H]1O[C@@H](CO)[C@H](O)[C@@H]1O [Example 18, 2-(n-Butylamino)-5,6-dichloro-1-(beta-L-ribofuranosyl)-1H-benzimidazole]	
123 °C	OC[C@@H]1O[C@H](n2c(NCc3ccccc3)nc3cc(Cl)c(Cl)cc32)[C@@H](O)[C@H]1O [Example 7, 2-(Benzylamino)-5,6-dichloro-1-(beta-L-ribofuranosyl)-1H-benzimidazole]	
238 to 240 °C	CNc1nc2cc(Cl)c(Cl)cc2n1[C@H]1O[C@@H](CO)[C@H](O)[C@@H]1O [Example 33, 5,6-Dichloro-2-(methylamino)-1-(beta-L-ribofuranosyl)-1H-benzimidazole]	
220 °C (dec.)	C=CCNc1nc2cc(Cl)c(Cl)cc2n1[C@H]1O[C@@H](CO)[C@H](O)[C@@H]1O [Example 4, 2-(Allylamino)-5,6-dichloro-1-(beta-L-ribofuranosyl)-1H-benzimidazole]	IC50 (HCMV strain AD169; Human betaherpesvirus 5, 120 h): 0.91 to 2.5 µM; CC50 at 5 days [1]: 100 µM
220 to 221 °C	OC[C@@H]1O[C@H](n2c(NC3CCC3)nc3cc(Cl)c(Cl)cc32)[C@@H](O)[C@H]1O [Example 20, 2-(Cyclobutylamino)-5,6-dichloro-1-(beta-L-ribofuranosyl)-1H-benzimidazole]	
169 °C	OC[C@@H]1O[C@H](n2c(Br)nc3cc(Cl)c(Cl)cc32)[C@@H](O)[C@H]1O [Example 2, 2-Bromo-5,6-dichloro-1-(beta-L-ribofuranosyl)-1H-benzimidazole]	
< 65 °C	CC(=O)OC[C@@H]1O[C@H](n2c(Br)nc3cc(Cl)c(Cl)cc32)[C@@H](OC(C)=O)[C@H]1OC(C)=O [Example 1, 2-Bromo-5,6-dichloro-1-(2,3,5-tri-O-acetyl-beta-L-ribofuranosyl)-1H-benzimidazole]	
155 to 157 °C	CCNc1nc2cc(Cl)c(Cl)cc2n1[C@H]1O[C@@H](CO)[C@H](O)[C@@H]1O [Example 34, 5,6-Dichloro-2-(ethylamino)-1-(beta-L-ribofuranosyl)-1H-benzimidazole]	IC50 (HCMV strain AD169; Human betaherpesvirus 5, 120 h): 0.75 to 0.85 µM; CC50 at 5 days [1]: 100 µM
140 °C	OC[C@@H]1O[C@H](n2c(NC3CCCC3)nc3cc(Cl)c(Cl)cc32)[C@@H](O)[C@H]1O [Example 6, 2-(Cyclopentylamino)-5,6-dichloro-1-(beta-L-ribofuranosyl)-1H-benzimidazole]	
110 to 112 °C	Nc1nc2cc(Cl)c(Cl)cc2n1[C@H]1O[C@@H](CO)[C@H](O)[C@@H]1O [Example 27, 2-Amino-5,6-dichloro-1-(beta-L-ribofuranosyl)-1H-benzimidazole]	
118 to 120 °C	CC(C)(C)Nc1nc2cc(Cl)c(Cl)cc2n1[C@H]1O[C@@H](CO)[C@H](O)[C@@H]1O [Example 24, 2-(tert-Butylamino)-5,6-dichloro-1-(beta-L-ribofuranosyl)-1H-benzimidazole]	
219 to 221 °C	CC(C)(C)Nc1nc2cc(Cl)c(Cl)cc2[nH]1 [Example 26, 2-(tert-Butylamino)-5,6-dichloro-1H-benzimidazole]	
140 to 141 °C	OC[C@@H]1O[C@@H](n2c(NC3CC3)nc3cc(Cl)c(Cl)cc32)[C@@H](O)[C@H]1O [Example 35, 2-Cyclopropylamino-5,6-dichloro-1-(alpha-L-ribofuranosyl)-1H-benzimidazole]	
123 to 124 °C	OC[C@@H]1O[C@H](n2c(NCCN3CCCC3)nc3cc(Cl)c(Cl)cc32)[C@@H](O)[C@H]1O [Example 22, 5,6-Dichloro-2-((2-(1-pyrrolidinyl)ethyl)amino)-1-(beta-L-ribofuranosyl)-1H-benzimidazole]	
182 to 184 °C	C#CCNc1nc2cc(Cl)c(Cl)cc2n1[C@H]1O[C@@H](CO)[C@H](O)[C@@H]1O [Example 9, 5,6-Dichloro-2-(propargylamino)-1-(beta-L-ribofuranosyl)-1H-benzimidazole]	
	OC[C@@H]1O[C@H](n2c(N3CCC3)nc3cc(Cl)c(Cl)cc32)[C@@H](O)[C@H]1O [Example 8, 2-Azetidino-5,6-dichloro-1-(beta-L-ribofuranosyl)-1H-benzimidazole]	IC50 (HCMV strain AD169): 41 µM; CC50 (MRC5 cells): 100 µM
121 to 122 °C	CCC(C)Nc1nc2cc(Cl)c(Cl)cc2n1[C@H]1O[C@@H](CO)[C@H](O)[C@@H]1O (stereo partly drawn) [Example 19, 2-(sec-Butylamino)-5,6-dichloro-1-(beta-L-ribofuranosyl)-1H-benzimidazole]	
229 to 230 °C	OC[C@@H]1O[C@H](n2c(NCC3CC3)nc3cc(Cl)c(Cl)cc32)[C@@H](O)[C@H]1O [Example 23, 2-((Cyclopropylmethyl)amino)-5,6-dichloro-1-(beta-L-ribofuranosyl)-1H-benzimidazole]	
	CC(C)Nc1nc2cc(Cl)c(Cl)cc2n1[C@H]1O[C@@H](CO)[C@H](O)[C@@H]1O [Example 5, 5,6-Dichloro-2-(isopropylamino)-1-(beta-L-ribofuranosyl)-1H-benzimidazole]	IC50 (HCMV strain AD169; Human betaherpesvirus 5, 120 h): 0.03 to 0.05 µM; CC50 at 5 days [1]: 100 µM
	OCCNc1nc2cc(Cl)c(Cl)cc2n1[C@H]1O[C@@H](CO)[C@H](O)[C@@H]1O [Example 12, 2-((5,6-Dichloro-1-(beta-L-ribofuranosyl)-1H-benzimidazol-2-yl)amino)ethanol]	IC50 (HCMV strain AD169; Human betaherpesvirus 5, 120 h): 3.5 to 5.8 µM; CC50 at 5 days [1]: 100 µM
